{"source": "paper PMC10770617", "about": "“27-Hydroxylation of oncosterone by CYP27A1 switches its activity from pro-tumor to anti-tumor” (Journal of Lipid Research, 2023)", "key": {"[1]": {"target": "T1, CYP27A1 (Homo sapiens, UniProt Q02318)", "T1 construct": "endogenous, MDA-231 and HepG2 cells", "T1 sequence (Q02318 34-531)": "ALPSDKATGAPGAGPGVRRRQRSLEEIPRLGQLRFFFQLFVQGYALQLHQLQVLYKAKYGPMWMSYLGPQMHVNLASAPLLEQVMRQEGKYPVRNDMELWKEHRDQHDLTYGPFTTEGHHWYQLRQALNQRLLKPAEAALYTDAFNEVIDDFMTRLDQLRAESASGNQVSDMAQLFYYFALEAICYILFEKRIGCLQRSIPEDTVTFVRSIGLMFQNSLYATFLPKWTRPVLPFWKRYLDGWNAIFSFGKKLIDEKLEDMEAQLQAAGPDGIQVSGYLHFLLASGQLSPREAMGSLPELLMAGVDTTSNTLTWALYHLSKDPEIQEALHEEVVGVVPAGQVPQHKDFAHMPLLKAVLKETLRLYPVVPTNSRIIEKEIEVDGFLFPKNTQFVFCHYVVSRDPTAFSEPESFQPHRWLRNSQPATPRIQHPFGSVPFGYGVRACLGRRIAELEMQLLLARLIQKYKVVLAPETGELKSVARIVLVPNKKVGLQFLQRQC", "assay": "inhibition of 27-hydroxylation of […]-CT in cells at […] (TLC); about […] (MDA-231) and […] (HepG2) reduction", "type": "cell-based"}, "[2]": {"target": "T2, HSD2 (11β-hydroxysteroid dehydrogenase type 2) (Homo sapiens, UniProt P80365)", "T2 construct": "gene HSD11B2; recombinant HSD2 (pCMV6-XL5 HSD2, SC122552) in HEK-293T cell lysate", "T2 sequence (P80365 1-405)": "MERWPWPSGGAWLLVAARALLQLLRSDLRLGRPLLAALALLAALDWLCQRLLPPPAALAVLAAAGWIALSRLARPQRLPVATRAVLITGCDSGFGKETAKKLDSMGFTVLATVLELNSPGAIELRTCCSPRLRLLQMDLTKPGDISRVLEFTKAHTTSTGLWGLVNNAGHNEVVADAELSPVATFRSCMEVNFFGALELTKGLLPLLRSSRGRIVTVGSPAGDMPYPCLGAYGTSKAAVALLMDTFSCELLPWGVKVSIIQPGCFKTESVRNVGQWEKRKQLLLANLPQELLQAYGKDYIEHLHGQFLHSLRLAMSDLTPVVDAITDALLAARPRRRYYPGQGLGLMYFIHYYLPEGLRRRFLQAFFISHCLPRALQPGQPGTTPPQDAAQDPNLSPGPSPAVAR", "assay": "inhibition of […]-CT to […]-OCDO conversion in HSD2-transfected HEK-293T lysate (TLC), Lineweaver-Burk and Dixon analysis", "type": "biochemical"}}}
{"smiles": "CC(O)(CS(=O)(=O)c1ccc(F)cc1)C(=O)Nc1ccc(C#N)c(C(F)(F)F)c1", "note": "(centres unmarked) [bicalutamide]", "values": [{"measurement": "inhibition at 10 µM", "setting": "[1]", "value": "~60", "unit": "%"}]}
{"smiles": "C[C@@H](CO)CCC[C@@H](C)[C@H]1CC[C@H]2[C@@H]3C[C@@H](O)[C@@]4(O)C[C@@H](O)CC[C@]4(C)[C@H]3CC[C@]12C", "note": "[27H-CT, (25R)-cholestane-3β,5α,6β,26-tetrol]", "values": [{"measurement": "Ki", "setting": "[2]", "value": 2300, "unit": "nM"}]}
